In one data set the target is T1, hSK3 channels (Homo sapiens, UniProt Q9UGI6).
T1 construct: expressed in transfected cells; host or cells: HEK293
Briefly: whole-cell patch-clamp recording of ionic current through SK channels, subtype 3, in HEK293 cells. It counts as cell-based. The settings on record: HEK293 cells expressing hSK3, baseline current at −75 mV, free Ca2+ 0.3-0.4 μM. The method, then: The ionic current through small-conductance Ca^2+-activated K^+ channels (SK channels, subtype 3) is recorded using the whole-cell configuration of the patch-clamp technique.
HEK293 tissue culture cells expressing hSK3 channels were grown in DMEM (Dulbecco's Modified Eagle Medium) supplemented with 10% FCS (foetal calf serum) at 37° C. in 5% CO2. At 60-80% confluency, cells were harvested by trypsin treatment and seeded on cover slips.
Experiments are carried out on one of several patch-clamp set-ups. Cells plated on coverslips are placed in a 15 μl perfusion chamber (flowrate ˜1 ml/min) mounted on an IMT-2 microscope. The microscopes are placed on vibration-free tables in grounded Faraday cages. All experiments are performed at room temperature (20-22° C.). […] Data are stored directly on the hard-disk and analysed by IGOR software (Wavemetrics, Lake Oswega, Oreg., USA).
The whole-cell configuration of the patch-clamp technique is applied. […] Cell capacitance is electronically compensated and the resistance between the pipette and the cell interior (the series resistance, Rs) is measured and compensated for. […]
The intracellular (pipette) solution contained: 154 mM KCl, 10 mM HEPES, 10 mM EGTA. Concentrations of CaCl2 and MgCl2 needed to obtain the desired free concentrations of Ca^2+ (0.3-0.4 μM, Mg^2+ always 1 mM) were calculated by EqCal software (Cambridge, UK) and added. […]
(The patch-clamp technique gives a direct electrical read-out from membranes.)

Structures can show the parent of a compound that is named as a salt.

This is an account of results in patent US20110144140A1, “PYRIDINYL-PYRIMIDINE DERIVATIVES USEFUL AS POTASSIUM CHANNEL MODULATING AGENTS” (priority 2006, published 2011).

T1 sequence (Q9UGI6 whole entry): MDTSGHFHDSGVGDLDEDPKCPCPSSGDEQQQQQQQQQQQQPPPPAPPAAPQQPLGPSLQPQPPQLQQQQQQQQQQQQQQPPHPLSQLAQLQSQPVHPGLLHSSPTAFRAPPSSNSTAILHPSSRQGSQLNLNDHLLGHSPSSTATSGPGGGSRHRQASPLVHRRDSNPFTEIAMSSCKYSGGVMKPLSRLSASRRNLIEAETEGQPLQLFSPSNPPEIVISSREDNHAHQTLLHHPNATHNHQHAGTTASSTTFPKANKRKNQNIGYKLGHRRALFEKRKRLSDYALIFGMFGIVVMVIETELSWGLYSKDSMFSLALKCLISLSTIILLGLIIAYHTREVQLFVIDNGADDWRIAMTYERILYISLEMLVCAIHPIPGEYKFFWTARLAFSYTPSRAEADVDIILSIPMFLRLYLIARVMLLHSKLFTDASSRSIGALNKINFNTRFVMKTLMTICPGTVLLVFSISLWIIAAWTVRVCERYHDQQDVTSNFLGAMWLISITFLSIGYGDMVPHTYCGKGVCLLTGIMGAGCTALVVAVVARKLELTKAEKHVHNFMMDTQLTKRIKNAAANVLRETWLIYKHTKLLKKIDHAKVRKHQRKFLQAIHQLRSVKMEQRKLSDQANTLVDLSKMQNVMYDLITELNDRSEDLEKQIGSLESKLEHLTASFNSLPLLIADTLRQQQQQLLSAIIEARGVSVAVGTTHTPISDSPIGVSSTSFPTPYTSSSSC

Take `Cc1cccc(-c2nc(C)cc(NC3CCCCC3)n2)n1`: the melting point fell in the range of 59.6 to 65 °C.

In turn, `Cc1cc(Nc2ccc(Cl)cc2)nc(-c2cccc(Cl)n2)n1` (as salt: hydrochloride) [Compound 4A, (4-Chloro-phenyl)-[6-methyl-2-(6-chloro-pyridin-2-yl)-pyrimidin-4-yl]-amine] showed a melting point of 239 °C.

Consider `Cc1cc(Nc2ccc(Cl)cc2)nc(-c2cccc(Cl)n2)n1` [Compound 4A, (4-Chloro-phenyl)-[6-methyl-2-(6-chloro-pyridin-2-yl)-pyrimidin-4-yl]-amine], for which the “SC100 (Stimulating Concentration required for increasing the baseline current by 100%)” value at hSK3 channels was 0.3 µM.

For orientation: melting point means the temperature, or range, at which the solid turns liquid.
